According to patent US11111264B2, “Morphic forms of 4-amino-7-(3,4-dihydroxy-5-(hydroxymethyl)tetrahydrofuran-2-yl)-2-methyl-7H-pyrrolo[2,3-d]pyrimidine-5-carboxamide and uses thereof” (Chimerix, Inc., priority 2017, dated 2021):
In brackets after ≈: the same amount, converted by molar mass.

Legend:
Type in all cases: physicochemical
[1] = Approximate solubility of Compound 1 in various solvents (stepwise solvent addition); details: thermodynamic from solid, read-out: Solubility [S, mg/mL]
Experimental: To determine approximate solubility of Compound 1, solvent was added in steps to the solid material (about 20 to 100 mg). The solubility values were rough approximations. Therefore, these values were used solely for the preliminary design of subsequent crystallization experiments.

[2] = Exact solubility of Compound 1 Form A in selected solvent systems (1 day suspension, HPLC); details: for solubility at 1 day: thermodynamic from solid
Experimental: (§1) The exact solubilities of Compound 1 Form A in selected solvent systems were determined at 24° C. and 60° C. About 100 mg of Compound 1 Form A were suspended in 2.0 mL of solvent and stirred using a magnetic stirrer bar for 1 day at 24° C. or 60° C., followed by filter centrifugation at the corresponding temperature. The concentration of Compound 1 was then determined by HPLC.
as §1, with “solubilities of Form A” for “solubilities of Compound 1 Form A”, “Compound 1 were suspended” for “Compound 1 Form A were suspended”

[3] = Chemical stability when stirring suspension at 75° C. (Experiment No. 26); details: 1-propanol/0.01 M NaOH aq 1:2 v/v; stirring at 75° C. overnight
Experimental: Experiment No. 26 tested seeding behavior at 75° C. at the 16 g scale as well as chemical stability when stirring suspensions at 75° C. for extended times.
16.02 g of Compound 1 were placed in a 300 mL glass reactor (diameter 70 mm) and 200 mL of 1-propanol/0.01 M NaOH aq 1:2 v/v were added at room temperature. The suspension was stirred using a two-bladed impeller (diameter 40 mm; 500 rpm) and heated to 90° C. in 30 minutes. After stirring at 90° C. for about 15 minutes (500 rpm) the solution formed was cooled to 75° C. with a cooling rate of 15K/hour and stirred at 75° C. for 10 minutes.
At 75° C. the solution was seeded with a suspension of 158 mg of crude Compound 1 in 5 mL of water. The weak suspension formed was stirred at 75° C. overnight followed by hot filtration (sintered glass funnel, porosity P4, diameter 65 mm; the suspension was easy to filter). The glass reactor was flushed with 20 mL of water and the washing suspension was also filtered. The filter cake was again washed with 20 mL of water and air dried for 20 minutes by drawing ambient air through the glass funnel.

Question: For `Cc1nc(N)c2c(C(N)=O)cn([C@@H]3O[C@H](CO)[C@@H](O)[C@H]3O)c2n1` [Compound 1, 4-amino-7-((2R,3R,4S,5R)-3,4-dihydroxy-5-(hydroxymethyl)tetrahydrofuran-2-yl)-2-methyl-7H-pyrrolo[2,3-d]pyrimidine-5-carboxamide], which solubility ([1]; aqueous buffer, NaOH aq 0.1M, 60° C.) is on record?
Answer: ~9 mg/mL (≈ 27.8 mM)

Question: What about the solubility ([1]; aqueous buffer, NaOH aq 0.1M, RT) of the same compound?
Answer: ~3 mg/mL (≈ 9.28 mM)

Question: And the solubility ([1]; aqueous buffer, NaOH aq 0.5M, 60° C.)?
Answer: ~38 mg/mL (≈ 118 mM)

Question: What about the solubility ([1]; aqueous buffer, NaOH aq 0.5M, RT) of the same compound?
Answer: ~16 mg/mL (≈ 49.5 mM)

Question: And the solubility ([1]; aqueous buffer, NaOH aq 1M, 60° C.)?
Answer: ~95 mg/mL (≈ 294 mM)

Question: What about the solubility ([1]; aqueous buffer, NaOH aq 1M, RT) of the same compound?
Answer: ~60 mg/mL (≈ 186 mM)

Question: And the solubility ([1]; aqueous with cosolvent or surfactant or cyclodextrin, 1-Propanol/water 1:2 v/v, RT)?
Answer: ~6 mg/mL (≈ 18.6 mM)

Question: What about the solubility ([1]; aqueous with cosolvent or surfactant or cyclodextrin, 1-Propanol/water 1:2 v/v, at 80° C.) of the same compound?
Answer: ~51 mg/mL (≈ 158 mM)

Question: And the solubility ([1]; aqueous with cosolvent or surfactant or cyclodextrin, 1-Propanol/water 2:1 v/v, RT)?
Answer: ~7 mg/mL (≈ 21.7 mM)

Question: And the solubility ([1]; aqueous with cosolvent or surfactant or cyclodextrin, 2-Propanol/NaOH aq 0.1M 1:1 v/v, RT)?
Answer: ~16 mg/mL (≈ 49.5 mM)

Question: And the solubility ([1]; aqueous with cosolvent or surfactant or cyclodextrin, 2-Propanol/water 1:1 v/v, RT)?
Answer: ~7 mg/mL (≈ 21.7 mM)

Question: And the solubility ([1]; aqueous with cosolvent or surfactant or cyclodextrin, 2-Propanol/water 1:2 v/v, RT)?
Answer: ~5 mg/mL (≈ 15.5 mM)

Question: What about the solubility ([1]; aqueous with cosolvent or surfactant or cyclodextrin, 2-Propanol/water 1:2 v/v, at 70° C.) of the same compound?
Answer: ~31 mg/mL (≈ 95.9 mM)

Question: What about the solubility ([1]; aqueous with cosolvent or surfactant or cyclodextrin, 2-Propanol/water 2:1 v/v, RT) of the same compound?
Answer: ~6 mg/mL (≈ 18.6 mM)

Question: And the solubility ([1]; aqueous with cosolvent or surfactant or cyclodextrin, DMSO/NaOH aq 0.1M 1:1 v/v, RT)?
Answer: ~20 mg/mL (≈ 61.9 mM)

Question: And the solubility ([1]; aqueous with cosolvent or surfactant or cyclodextrin, DMSO/water 1:1 v/v, RT)?
Answer: ~8 mg/mL (≈ 24.7 mM)

Question: And the solubility ([1]; aqueous with cosolvent or surfactant or cyclodextrin, DMSO/water 1:1 v/v, at 80° C.)?
Answer: ~45 mg/mL (≈ 139 mM)

Question: What about the solubility ([1]; aqueous with cosolvent or surfactant or cyclodextrin, DMSO/water 1:2 v/v, RT) of the same compound?
Answer: ~3 mg/mL (≈ 9.28 mM)

Question: What about the solubility ([1]; aqueous with cosolvent or surfactant or cyclodextrin, THF/water 1:1 v/v, RT) of the same compound?
Answer: ~22 mg/mL (≈ 68 mM)

Question: What about the solubility ([1]; aqueous with cosolvent or surfactant or cyclodextrin, THF/water 1:4 v/v, RT) of the same compound?
Answer: ~6 mg/mL (≈ 18.6 mM)

Question: And the solubility ([1]; aqueous with cosolvent or surfactant or cyclodextrin, THF/water 4:1 v/v, RT)?
Answer: ~15 mg/mL (≈ 46.4 mM)

Question: And the solubility ([1]; organic solvent or mixture, DMSO, RT)?
Answer: ~500 mg/mL (≈ 1550 mM)

Question: What about the solubility ([1]; organic solvent or mixture, Ethanol, RT) of the same compound?
Answer: 1.7 mg/mL (≈ 5.26 mM)

Question: What about the solubility ([1]; organic solvent or mixture, THF, RT) of the same compound?
Answer: < 1 mg/mL

Question: What about the solubility ([1]; Water, 60° C.) of the same compound?
Answer: ~3 mg/mL (≈ 9.28 mM)

Question: What about the solubility ([1]; Water, RT) of the same compound?
Answer: < 1.3 mg/mL

Question: And the solubility at 1 day ([2]; 0.1 M aqueous NaOH, aqueous buffer, NaOH aq 0.1M, 24° C.)?
Answer: 2.8 mg/mL (≈ 8.66 mM)

Question: What about the solubility at 1 day ([2]; 0.1 M aqueous NaOH, aqueous buffer, NaOH aq 0.1M, 60° C.) of the same compound?
Answer: 8 mg/mL (≈ 24.7 mM)

Question: What about the solubility at 1 day ([2]; DMSO/0.01 M aqueous NaOH 1:2 v/v, aqueous with cosolvent or surfactant or cyclodextrin, DMSO/NaOH aq 0.01M 1:2 v/v, 24° C.) of the same compound?
Answer: 4.8 mg/mL (≈ 14.8 mM)

Question: What about the solubility at 1 day ([2]; DMSO/0.01 M aqueous NaOH 1:2 v/v, aqueous with cosolvent or surfactant or cyclodextrin, DMSO/NaOH aq 0.01M 1:2 v/v, 60° C.) of the same compound?
Answer: 19.6 mg/mL (≈ 60.6 mM)

Question: What about the solubility at 1 day ([2]; DMSO/0.1 M aqueous NaOH 1:2 v/v, aqueous with cosolvent or surfactant or cyclodextrin, DMSO/NaOH aq 0.1M 1:2 v/v, 24° C.) of the same compound?
Answer: 12.5 mg/mL (≈ 38.7 mM)

Question: What about the “solubility” value ([2]; NaOH aq 0.01M, 24° C.) of the same compound?
Answer: 0.81 mg/mL (≈ 2.51 mM)

Question: What about the solubility at 1 day ([2]; aqueous with cosolvent or surfactant or cyclodextrin, 1-Propanol/NaOH aq 0.01M 1:3 v/v, 24° C.) of the same compound?
Answer: 6.8 mg/mL (≈ 21 mM)

Question: And the solubility at 1 day ([2]; aqueous with cosolvent or surfactant or cyclodextrin, 1-Propanol/NaOH aq 0.01M 1:3 v/v, 60° C.)?
Answer: 25.9 mg/mL (≈ 80.1 mM)

Question: What about the solubility at 1 day ([2]; aqueous with cosolvent or surfactant or cyclodextrin, 1-Propanol/NaOH aq 0.1M 1:3 v/v, 24° C.) of the same compound?
Answer: 16.6 mg/mL (≈ 51.3 mM)

Question: And the solubility at 1 day ([2]; aqueous with cosolvent or surfactant or cyclodextrin, 1-Propanol/water 1:2 v/v, 60° C.)?
Answer: 30.9 mg/mL (≈ 95.6 mM)

Question: And the solubility at 1 day ([2]; aqueous with cosolvent or surfactant or cyclodextrin, 2-Propanol/NaOH aq 0.01M 1:3 v/v, 24° C.)?
Answer: 5.2 mg/mL (≈ 16.1 mM)

Question: And the solubility at 1 day ([2]; aqueous with cosolvent or surfactant or cyclodextrin, 2-Propanol/NaOH aq 0.01M 1:3 v/v, 60° C.)?
Answer: 16.9 mg/mL (≈ 52.3 mM)

Question: And the solubility at 1 day ([2]; aqueous with cosolvent or surfactant or cyclodextrin, 2-Propanol/NaOH aq 0.1M 1:3 v/v, 24° C.)?
Answer: 14.1 mg/mL (≈ 43.6 mM)

Question: What about the solubility at 1 day ([2]; aqueous with cosolvent or surfactant or cyclodextrin, 2-Propanol/water 1:2 v/v, 60° C.) of the same compound?
Answer: 26.6 mg/mL (≈ 82.3 mM)

Question: And the solubility at 1 day ([2]; aqueous with cosolvent or surfactant or cyclodextrin, DMSO/water 1:1 v/v, 60° C.)?
Answer: 18.7 mg/mL (≈ 57.8 mM)

Question: And the solubility at 1 day ([2]; aqueous with cosolvent or surfactant or cyclodextrin, Ethanol/NaOH aq 0.01M 1:3 v/v, 24° C.)?
Answer: 3.3 mg/mL (≈ 10.2 mM)

Question: And the solubility at 1 day ([2]; aqueous with cosolvent or surfactant or cyclodextrin, Ethanol/NaOH aq 0.01M 1:3 v/v, 60° C.)?
Answer: 15.3 mg/mL (≈ 47.3 mM)

Question: What about the solubility at 1 day ([2]; aqueous with cosolvent or surfactant or cyclodextrin, Ethanol/NaOH aq 0.1M 1:3 v/v, 24° C.) of the same compound?
Answer: 9 mg/mL (≈ 27.8 mM)

Question: What about the “chemical stability of suspension” value [3] of the same compound?
Answer: chemically stable
